Laboratory results from publication PMC12517324, “Hyperagonism of a Vitamin D Receptor Agonist/Histone Deacetylase Inhibitor Hybrid Molecule” (Journal of Medicinal Chemistry, 2025).

Tested on: B16–F10 cells
Assay: RNaseq gene expression profiling;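 for logFC Ak4: Hybrid compounds tested at 10 µM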;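 for logFC Cck: Hybrid compounds tested at 10 µM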;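 for logFC Cited1: Hybrid compounds tested at 10 µM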;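 for logFC Gpd1: Hybrid compounds tested at 10 µM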;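 for logFC Mgll: Hybrid compounds tested at 10 µM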;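 for logFC Nr4a3: Hybrid compounds tested at 10 µM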;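 for logFC Rnf145: Hybrid compounds tested at 10 µM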;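 for logFC Rpia: Hybrid compounds tested at 10 µM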;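 for logFC Sema7a: Hybrid compounds tested at 10 µM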;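 for logFC Snrpd1: Hybrid compounds tested at 10 µM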;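 for logFC Spc24: Hybrid compounds tested at 10 µM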;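 for logFC Tk1: Hybrid compounds tested at 10 µM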;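 for logFC Tonsl: Hybrid compounds tested at 10 µM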;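 for logFC Tpi1: Hybrid compounds tested at 10 µM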;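 for logFC Ugdh: Hybrid compounds tested at 10 µM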
Format: cell-based, mouse
Description: AC-340 superinduced CYP24A1 expression in all cell lines tested, and ZG-126 appeared to be a hyperagonist in SK-MEL-28 cells. […] AC-340 treatment produced 3 times more differentially expressed genes (DEGs) than AM-193, with ZG-126 producing an intermediate number (Figure A). […] The varying effects of each treatment on the numbers of regulated genes and the fold changes observed are reflected in plots of log-fold changes and volcano plots (Figure S3B).
A quality control was performed before sequencing in paired-end at 50 M reads by Illumina NovaSeq 6000 S4 PE100. After sequencing, the FASTQ files were sent to us and all downstream analysis were performed on Galaxy (Galaxy (usegalaxy.org)). First, trimmomatic tool was used to remove the adapters from the reads. Then, using the alignment tool, HISAT2, the reads were mapped to the mouse genome. In the next step, the counted reads were annotated and finally the list of differentially expressed genes (DEGs) for each treatment was obtained using the preinstalled R package called Limma.

SMILES: CCC(CC)(c1ccc(OCCCCCC(=O)NO)cc1)c1ccc(OCC(O)C(C)(C)C)c(C)n1 (stereo not shown) [AM-193]
- logFC Rnf145 (RNAseq, gene Rnf145, AM193-significant genes): -0.7842
- logFC Rpia (RNAseq, gene Rpia, AM193-significant genes): -0.7096
- logFC Samd1 (RNAseq, gene Samd1, AM193-significant genes): -0.798
- logFC Selenbp1 (RNAseq, gene Selenbp1, AM193-significant genes): -1.012
- logFC Sema7a (RNAseq, gene Sema7a, AM193-significant genes): -0.8174
- logFC Sfxn2 (RNAseq, gene Sfxn2, AM193-significant genes): -0.9624
- logFC Sigmar1 (RNAseq, gene Sigmar1, AM193-significant genes): -0.7437
- logFC Sik1 (RNAseq, gene Sik1, AM193-significant genes): -0.7218
- logFC Ska3 (RNAseq, gene Ska3, AM193-significant genes): -0.7116
- logFC Slc2a1 (RNAseq, gene Slc2a1, AM193-significant genes): -1.04
- logFC Slc37a4 (RNAseq, gene Slc37a4, AM193-significant genes): -0.9222
- logFC Slc39a10 (RNAseq, gene Slc39a10, AM193-significant genes): -0.7848
- logFC Snrpa1 (RNAseq, gene Snrpa1, AM193-significant genes): -1.002
- logFC Snrpd1 (RNAseq, gene Snrpd1, AM193-significant genes): -0.7702
- logFC Spc24 (RNAseq, gene Spc24, AM193-significant genes): -0.7364
- logFC Srm (RNAseq, gene Srm, AM193-significant genes): -1.055
- logFC Tarbp1 (RNAseq, gene Tarbp1, AM193-significant genes): -0.7191
- logFC Tbl2 (RNAseq, gene Tbl2, AM193-significant genes): -0.8635
- logFC Tet1 (RNAseq, gene Tet1, AM193-significant genes): -0.8944
- logFC Tfap4 (RNAseq, gene Tfap4, AM193-significant genes): -1.016
- logFC Tinagl1 (RNAseq, gene Tinagl1, AM193-significant genes): -0.9151
- logFC Tk1 (RNAseq, gene Tk1, AM193-significant genes): -0.987
- logFC Tonsl (RNAseq, gene Tonsl, AM193-significant genes): -0.711
- logFC Tpi1 (RNAseq, gene Tpi1, AM193-significant genes): -0.895
- logFC Trip13 (RNAseq, gene Trip13, AM193-significant genes): -0.8647
- logFC Trmt61a (RNAseq, gene Trmt61a, AM193-significant genes): -0.7832
- logFC Trpm1 (RNAseq, gene Trpm1, AM193-significant genes): -0.743
- logFC Ttk (RNAseq, gene Ttk, AM193-significant genes): -0.8273
- logFC Uba7 (RNAseq, gene Uba7, AM193-significant genes): -0.9636
- logFC Ugdh (RNAseq, gene Ugdh, AM193-significant genes): -0.8794
- logFC Ugp2 (RNAseq, gene Ugp2, AM193-significant genes): -0.7144
- logFC Uhrf1 (RNAseq, gene Uhrf1, AM193-significant genes): -0.8121
- logFC Xrcc3 (RNAseq, gene Xrcc3, AM193-significant genes): -0.7656
- logFC Abca12 (RNaseq, B16–F10 cells, gene Abca12 (ATP-binding cassette, sub-family A (ABC1), member 12), sheet AM193-significant genes): -1.21
- logFC Ak4 (RNaseq, B16–F10 cells, gene Ak4 (adenylate kinase 4), sheet AM193-significant genes): -1.909
- logFC Bnip3 (RNaseq, B16–F10 cells, gene Bnip3 (BCL2/adenovirus E1B interacting protein 3), sheet AM193-significant genes): -1.2222
- logFC Cck (RNaseq, B16–F10 cells, gene Cck (cholecystokinin), sheet AM193-significant genes): -1.792
- logFC Cited1 (RNaseq, B16–F10 cells, gene Cited1 (Cbp/p300-interacting transactivator with Glu/Asp-rich carboxy-terminal domain 1), sheet AM193-significant genes): -1.397
- logFC Dna2 (RNaseq, B16–F10 cells, gene Dna2 (DNA replication helicase/nuclease 2), sheet AM193-significant genes): -1.157
- logFC Gpd1 (RNaseq, B16–F10 cells, gene Gpd1 (glycerol-3-phosphate dehydrogenase 1 (soluble)), sheet AM193-significant genes): -1.351
- logFC H2bc12 (RNaseq, B16–F10 cells, gene H2bc12 (H2B clustered histone 12), sheet AM193-significant genes): -1.307
- logFC H3c8 (RNaseq, B16–F10 cells, gene H3c8 (H3 clustered histone 8), sheet AM193-significant genes): -1.15
- logFC Hk2 (RNaseq, B16–F10 cells, gene Hk2 (hexokinase 2), sheet AM193-significant genes): -1.284
- logFC Kit (RNaseq, B16–F10 cells, gene Kit (KIT proto-oncogene receptor tyrosine kinase), sheet AM193-significant genes): -2.0666
- logFC Lpar5 (RNaseq, B16–F10 cells, gene Lpar5 (lysophosphatidic acid receptor 5), sheet AM193-significant genes): -1.721
- logFC Megf6 (RNaseq, B16–F10 cells, gene Megf6 (multiple EGF-like-domains 6), sheet AM193-significant genes): -1.186
- logFC Mgll (RNaseq, B16–F10 cells, gene Mgll (monoglyceride lipase), sheet AM193-significant genes): -1.2265
- logFC Mknk2 (RNaseq, B16–F10 cells, gene Mknk2 (MAP kinase-interacting serine/threonine kinase 2), sheet AM193-significant genes): -1.156
- logFC Nr4a3 (RNaseq, B16–F10 cells, gene Nr4a3 (nuclear receptor subfamily 4, group A, member 3), sheet AM193-significant genes): -2.364
- logFC Oas2 (RNaseq, B16–F10 cells, gene Oas2 (2'-5' oligoadenylate synthetase 2), sheet AM193-significant genes): -1.532
- logFC Pafah1b3 (RNaseq, B16–F10 cells, gene Pafah1b3 (platelet-activating factor acetylhydrolase, isoform 1b, subunit 3), sheet AM193-significant genes): -1.354
- logFC Pdk1 (RNaseq, B16–F10 cells, gene Pdk1 (pyruvate dehydrogenase kinase, isoenzyme 1), sheet AM193-significant genes): -1.253
- logFC Sapcd2 (RNaseq, B16–F10 cells, gene Sapcd2 (suppressor APC domain containing 2), sheet AM193-significant genes): -1.167
- logFC Slc16a3 (RNaseq, B16–F10 cells, gene Slc16a3 (solute carrier family 16 (monocarboxylic acid transporters), member 3), sheet AM193-significant genes): -1.321
- logFC (gene 1700019D03Rik): 1.314
- logFC (gene 4930455G09Rik): 1.641
- logFC (gene Abca8b): 1.273
- logFC (gene Abcd2): 4.745
- logFC (gene Adamts7): 1.528
- logFC (gene Adamtsl5): 1.436
- logFC (gene Adssl1): 1.51
- logFC (gene Afap1l2): 1.64
- logFC (gene Akna): 1.375
- logFC (gene Aldh1l2): 1.268
- logFC (gene Ankrd23): 1.409
- logFC (gene Asns): 1.391
- logFC (gene Atp1b2): 1.2305
- logFC (gene Atp2b4): 1.278
- logFC (gene Atp8b3): 1.445
- logFC (gene Bmf): 1.318
- logFC (gene C1s1): 1.363
- logFC (gene Cacng7): 1.328
- logFC (gene Car11): 1.215
- logFC (gene Cebpb): 1.421
- logFC (gene Chn1): 1.21
- logFC (gene Cnn2): 1.571
- logFC (gene Col20a1): 1.535
- logFC (gene Csdc2): 1.317
- logFC (gene Cth): 1.456
- logFC (gene Ctsf): 1.525
- logFC (gene Cyb5r2): 1.681
- logFC (gene Dagla): 1.633
- logFC (gene Dbp): 1.36
- logFC (gene Ddr2): 1.2413
- logFC (gene Dgat1): 1.203
- logFC (gene Dgka): 1.571
- logFC (gene Dglucy): 1.251
- logFC (gene Eef2k): 1.203
- logFC (gene Efhd1): 5.014
- logFC (gene Ehd3): 1.292
- logFC (gene Fam83f): 1.352
- logFC (gene Fam178b): 1.456
- logFC (gene Fbxo2): 1.302
- logFC (gene Fbxo41): 1.469
- logFC (gene Fry): 1.598
- logFC (gene Fstl1): 1.467
- logFC (gene Gjc3): 1.602
- logFC (gene Gli1): 1.6149
- logFC (gene Glipr2): 1.645
- logFC (gene Gm19705): 1.68
- logFC (gene Gpr158): 1.296
- logFC (gene Gpr162): 1.524
- logFC (gene Gstm7): 1.44
- logFC (gene Heg1): 1.713
- logFC (gene Hid1): 1.246
- logFC (gene Hoga1): 1.608
- logFC (gene Hrc): 1.3608
- logFC (gene Id3): 1.638
- logFC (gene Inpp5e): 1.325
- logFC (gene Itga8): 1.267
- logFC (gene Jam2): 1.325
- logFC (gene Kif9): 1.315
- logFC (gene Lrrc75b): 1.346
- logFC (gene Lrtm2): 4.986
- logFC (gene Ltbp4): 1.39
- logFC (gene Mettl27): 1.2162
- logFC (gene Mmp11): 1.398
- logFC (gene Mmp28): 4.741
- logFC (gene Mxd4): 1.4725
- logFC (gene Nccrp1): 5.249
- logFC (gene Neurl3): 1.34
- logFC (gene Notch1): 1.541
- logFC (gene Notch3): 1.442
- logFC (gene Nova2): 1.445
- logFC (gene Nupr1): 1.537
- logFC (gene Nwd1): 1.316
- logFC (gene Pcdh1): 1.75
- logFC (gene Pck2): 1.456
- logFC (gene Pdlim2): 1.539
- logFC (gene Phlda3): 1.237
- logFC (gene Phyhd1): 1.588
- logFC (gene Pierce2): 1.323
- logFC (gene Plk2): 1.532
- logFC (gene Prelp): 5.529
- logFC (gene Prox1): 1.361
- logFC (gene Ptges): 4.4154
- logFC (gene Reck): 1.669
- logFC (gene Rom1): 1.351
- logFC (gene Scamp1): 1.346
- logFC (gene Scube3): 1.291
- logFC (gene Serpinb9b): 1.695
- logFC (gene Shank1): 1.222
- logFC (gene Slc17a7): 1.733
- logFC (gene Slc25a35): 1.406
- logFC (gene Slc25a42): 1.347
- logFC (gene Slc43a2): 1.207
- logFC (gene Sparc): 1.263
- logFC (gene Spn): 1.262
- logFC (gene Sync): 1.481
- logFC (gene Syt7): 1.364
- logFC (gene Trnp1): 1.3245
- logFC (gene Vdr): 5.618
- logFC (gene Wnt10a): 4.9613
- logFC (gene Zfr2): 1.286
